Data published in paper PMC11413778, “Honokiol enhances the sensitivity of cetuximab in KRAS^G13D mutant colorectal cancer through destroying SNX3-retromer complex” (Theranostics, 2024).
pKd: −log10 of the molar value.

Target: T1, SNX3 (Homo sapiens, UniProt O60493)
T1 construct: Recombinant Human SNX3 protein (ab109970)
Experiment: biolayer interferometry (biotinylated SNX3 on SA biosensor), supported by CETSA in HCT116 and LoVo lysates
Assay type: binding

T1 sequence (O60493 2-162): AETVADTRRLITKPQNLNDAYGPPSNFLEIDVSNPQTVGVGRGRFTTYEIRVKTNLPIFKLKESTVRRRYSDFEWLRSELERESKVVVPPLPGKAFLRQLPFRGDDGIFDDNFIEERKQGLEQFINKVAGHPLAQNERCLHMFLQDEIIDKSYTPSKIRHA

C=CCc1ccc(O)c(-c2ccc(O)c(CC=C)c2)c1 [HNK, honokiol]
pKd: 4.54
